Measurements reported in US12616201B2, “Herbicidal compositions comprising isoxaflutole” (BASF SE, priority 2024, dated 2026).

Assays:
Abuthilon theophrasti = assay: Post-emergence application in field trials, ABUTH; format: in vivo; conditions: ABUTH growth stage 14-16
Experimental: (§1) In the examples below, using the method of S. R. Colby (1967) “Calculating synergistic and antagonistic responses of herbicide combinations”, Weeds 15, p. 22ff., the value E, which is expected if the activity of the individual active compounds is only additive, was calculated:
(§2) [formula] • where • X=percent activity using active herbicide A at an application rate a; • Y=percent activity using active herbicide B (i.e. isoxaflutole) at an application rate b; • E=expected activity (in %) by A+B at application rates a+b.
(§3) If the value found experimentally is higher than the value E calculated according to Colby, a synergistic effect is present.
(§4) On field test sites, natural weed infestation or seeded weeds were treated post-emergence of the weeds.
(§5) In the field trials, the weeds were treated as indicated below.
(§6) In the following experiments, the herbicidal activity for the individual herbicidal compositions (solo and mixture applications) was assessed at the indicated days after treatment (DAT). The assessments for the damage on undesired weeds caused by the composition was carried out using a scale from 0 to 100%, compared to the untreated control plants. Here, 0 means no damage and 100 means complete destruction of the plants.
(§7) Herbicide A-1 and isoxaflutole (240 g/l SC, Balance Flexx®) were, together with addition of 0.25 v/v % MSO (methylated sed oil) as adjuvant, formulated in water as distribution medium (water volume 200 l/ha) and sprayed with commercial flat fan nozzles.

Amaranthus hybridus = assay: Post-emergence application in field trials, AMACH; format: in vivo; conditions: Table 1.1; AMACH growth stage 35; 21 DAT; 100 g ai/ha
Experimental: as §1, §2, §3, §4, §5
as §6, with “the plants. […]” for “the plants.”

Amaranthus retroflexus = assay: Post-emergence application in field trials, AMARE; format: in vivo
Experimental: as §1, §2, §3, §4, §5, §6, §7
(§8) Herbicide A-1, isoxaflutole (240 g/l SC), saflufenacil (342 g/l) and pyroxasulfone were, together with addition of 0.25 v/v % MSO (methylated sed oil) as adjuvant, formulated in water as distribution medium (water volume 200 l/ha) and sprayed with commercial flat fan nozzles.

Spermacoce latifolia = assay: Post-emergence application in field trials, BOILF; format: in vivo; conditions: Table 1.1; BOILF growth stage 40; 21 DAT; 100 g ai/ha
Experimental: as §1, §2, §3, §4, §5, §6
Herbicide A-1 and isoxaflutole (75% WG) were, together with addition of 0.5 v/v % MSO (methylated sed oil) as adjuvant, formulated in water as distribution medium (water volume 200 l/ha) and sprayed with commercial flat fan nozzles.

Datura stramonium = assay: Post-emergence application in field trials, DATST; format: in vivo; conditions: 100 g ai/ha
Experimental: as §1, §2, §3, §4, §5, §6
(§9) Herbicide A-1 and isoxaflutole (240 g/l SC) were, together with addition of 0.25 v/v % MSO (methylated sed oil) as adjuvant, formulated in water as distribution medium (water volume 200 l/ha) and sprayed with commercial flat fan nozzles.
(§10) Herbicide A-1, isoxaflutole (240 g/l SC) and saflufenacil (342 g/l) were, together with addition of 0.25 v/v % MSO (methylated sed oil) as adjuvant, formulated in water as distribution medium (water volume 200 l/ha) and sprayed with commercial flat fan nozzles.

Echinochloa crus-galli = assay: Post-emergence application in field trials, ECHCG; format: in vivo
Experimental: as §1, §2, §3, §4, §5, §6, §9, §7, §10, §8

Euphorbia heterophylla = assay: Post-emergence application in field trials, EPHHL; format: in vivo; conditions: Table 1.1; EPHHL growth stage 35; 21 DAT; 100 g ai/ha
Experimental: as §1, §2, §3, §4, §5
as §6, with “the plants. […]” for “the plants.”

Glycine max = assay: Post-emergence application in field trials, GLXMA; format: in vivo; conditions: GLXMA growth stage 13, 100 g ai/ha
Experimental: as §1, §2, §3, §4, §5, §6, §9

Hordeum vulgare = assay: Post-emergence application in field trials, HORVX; format: in vivo; conditions: HORVX growth stage 23-29
Experimental: as §1, §2, §3, §4, §5, §6, §7

Ipomoea triloba = assay: Post-emergence application in field trials, IPOTR; format: in vivo; conditions: Table 1.1; IPOTR growth stage 35; 21 DAT; 100 g ai/ha
Experimental: as §1, §2, §3, §4, §5
as §6, with “the plants. […]” for “the plants.”

Lolium multiflorum = assay: Post-emergence application in field trials, LOLMU; format: in vivo; conditions: LOLMU height 20-25 cm, 100 g ai/ha
Experimental: as §1, §2, §3, §4, §5, §6, §8

Setaria verticillata = assay: Post-emergence application in field trials, SETVE; format: in vivo; conditions: SETVE growth stage 21-23
Experimental: as §1, §2, §3, §4, §5, §6, §9, §7

Zea mays = assay: Post-emergence application in field trials, ZEAMX; format: in vivo
Experimental: as §1, §2, §3, §4, §5, §6, §9, §7, §10, §8

HORVW = assay: Post-emergence application in field trials, HORVW; format: in vivo, Hordeum vulgare; conditions: HORVW height 20-25 cm, 100 g ai/ha
Experimental: as §1, §2, §3, §4, §5, §6, §8

CS(=O)(=O)c1cc(C(F)(F)F)ccc1C(=O)c1cnoc1C1CC1 [B, isoxaflutole]
% herbicidal activity (Abuthilon theophrasti; Table 3.1, 7 DAT, 56 g ai/ha): 40%
% herbicidal activity (Abuthilon theophrasti; Table 3.2, 21 DAT, 56 g ai/ha): 45%
% herbicidal activity (Abuthilon theophrasti; Table 3.2, 21 DAT, 80 g ai/ha): 65%
% herbicidal activity (Abuthilon theophrasti; Table 3.4, 42 DAT, 56 g ai/ha): 45%
% herbicidal activity (Abuthilon theophrasti; Table 3.4, 42 DAT, 80 g ai/ha): 60%
% herbicidal activity (Amaranthus hybridus): 30%
% herbicidal activity (Amaranthus retroflexus; Table 3.4, AMARE growth stage 31-49, 42 DAT, 80 g ai/ha): 45%
% herbicidal activity (Amaranthus retroflexus; Table 5.4, AMARE height 8-20 cm, 7 DAT, 100 g ai/ha): 30%
% herbicidal activity (Spermacoce latifolia): 27%
% herbicidal activity (Datura stramonium; Table 2.1, DATST growth stage 14-16, 7 DAT): 25%
% herbicidal activity (Datura stramonium; Table 2.3, DATST growth stage 14-16, 21 DAT): 50%
% herbicidal activity (Datura stramonium; Table 4.2, DATST growth stage 14-16, height 5-10 cm, 42 DAT): 50%
% herbicidal activity (Echinochloa crus-galli; Table 2.1, ECHCG growth stage 23-30, 7 DAT, 100 g ai/ha): 40%
% herbicidal activity (Echinochloa crus-galli; Table 3.1, ECHCG growth stage 23-30, 7 DAT, 80 g ai/ha): 70%
% herbicidal activity (Echinochloa crus-galli; Table 3.2, ECHCG growth stage 23-30, 21 DAT, 56 g ai/ha): 80%
% herbicidal activity (Echinochloa crus-galli; Table 3.2, ECHCG growth stage 23-30, 21 DAT, 80 g ai/ha): 80%
% herbicidal activity (Echinochloa crus-galli; Table 4.1, ECHCG growth stage 23-30, height 15-20 cm, 7 DAT, 100 g ai/ha): 40%
% herbicidal activity (Echinochloa crus-galli; Table 5.4, ECHCG height 15-20 cm, 7 DAT, 100 g ai/ha): 40%
% herbicidal activity (Euphorbia heterophylla): 22%
% herbicidal activity (Glycine max; Table 2.1, 7 DAT): 25%
% herbicidal activity (Glycine max; Table 2.2, 21 DAT): 35%
% herbicidal activity (Glycine max; Table 2.3, 21 DAT): 40%
% herbicidal activity (Hordeum vulgare; Table 3.1, 7 DAT, 56 g ai/ha): 10%
% herbicidal activity (Hordeum vulgare; Table 3.1, 7 DAT, 80 g ai/ha): 10%
% herbicidal activity (Hordeum vulgare; Table 3.2, 21 DAT, 56 g ai/ha): 10%
% herbicidal activity (Hordeum vulgare; Table 3.2, 21 DAT, 80 g ai/ha): 10%
% herbicidal activity (Ipomoea triloba): 19%
% herbicidal activity (Lolium multiflorum; Table 5.4, 7 DAT): 20%
% herbicidal activity (Lolium multiflorum; Table 5.8, 21 DAT): 20%
% herbicidal activity (Setaria verticillata; Table 2.1, 7 DAT, 100 g ai/ha): 20%
% herbicidal activity (Setaria verticillata; Table 3.4, 42 DAT, 56 g ai/ha): 20%
% herbicidal activity (Zea mays; Table 2.1, ZEAMX growth stage 15-16, 7 DAT, 100 g ai/ha): 10%
% herbicidal activity (Zea mays; Table 3.2, ZEAMX growth stage 15-16, 21 DAT, 56 g ai/ha): 0%
% herbicidal activity (Zea mays; Table 3.2, ZEAMX growth stage 15-16, 21 DAT, 80 g ai/ha): 0%
% herbicidal activity (Zea mays; Table 3.3, ZEAMX growth stage 15-16, 28 DAT, 56 g ai/ha): 0%
% herbicidal activity (Zea mays; Table 4.1, ZEAMX growth stage 15-16, height 25-30 cm, 7 DAT, 100 g ai/ha): 10%
% herbicidal activity (Zea mays; Table 5.12, 7 DAT, height 25-30 cm, B 100 g ai/ha): 10%
% herbicidal activity (Zea mays; Table 5.4, ZEAMX height 25-30 cm, 7 DAT, 100 g ai/ha): 10%
% herbicidal activity (Zea mays; Table 5.5, ZEAMX height 25-30 cm, 21 DAT, 100 g ai/ha): 7%
% herbicidal activity (Zea mays; Table 5.6, ZEAMX height 25-30 cm, 28 DAT, 100 g ai/ha): 0%
% herbicidal activity (Zea mays; Table 5.7, ZEAMX height 25-30 cm, 7 DAT, 100 g ai/ha): 10%
% herbicidal activity (Zea mays; Table 5.8, ZEAMX height 25-30 cm, 21 DAT, 100 g ai/ha): 7%
% herbicidal activity (Zea mays; Table 5.9, ZEAMX height 25-30 cm, 28 DAT, 100 g ai/ha): 0%
% herbicidal activity (HORVW; Table 5.5, 21 DAT): 10%
% herbicidal activity (HORVW; Table 5.6, 28 DAT): 10%
% herbicidal activity (HORVW; Table 5.8, 21 DAT): 10%
